Measurements as given in patent publication EP1137645B1, “ALPHA-METHYLBENZYL-CONTAINING THIOUREA INHIBITORS OF HERPES VIRUSES CONTAINING A […] GROUP” (Wyeth, priority 1998, dated 2000).
≈ marks a conversion by molar mass, not a printed value. Read-outs that look alike come from different tables or passages of the source.

What was measured:
[1] = tested on: HCMV recombinant mutant virus whose genome contains the prokaryotic beta-glucuronidase gene; test: microbe, parasite or virus in culture; type: cell-based, human cytomegalovirus; details: Human betaherpesvirus 5, Fibroblast
Method in brief: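 Human foreskin fibroblasts infected with HCMV recombinant carrying beta-glucuronidase under a viral promoter (e.g. RV145) in presence of compound. At 96 h post-infection, lysates assayed for beta-glucuronidase by colorimetric or fluorogenic substrate as replication readout; IC50 estimated from varying compound amounts.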

HSV- I = test: HSV antiviral (ELISA) assay; type: cell-based; details: HSV- I, Vero cells, ELISA; read-out: IC50 (ug/ml) HSV
Method in brief: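 Vero cells in DMEM with 2% FBS treated with compound 30 min before HSV-1 infection (MOI 0.006), then incubated ~24 h at 37°C. Viral replication measured by ELISA against glycoprotein D with β-galactosidase-linked secondary and fluorogenic substrate (ex 365/em 450 nm); IC50 relative to untreated fluorescence.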

VZV strain Ellen = test: VZV antiviral (ELISA) assay; type: cell-based; details: for IC50: read-out: IC50 (ug/ml) VZV
Method in brief: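 HFF cells infected with VZV Ellen at multiplicity below 0.1 overnight, then mixed infected/uninfected cells seeded with compound in DMEM/2% FBS and incubated three days at 37°C, 5% CO2.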

[2] = read-out: IC50 ug/ml HCMV, HCMV, human foreskin fibroblasts
[3] = Human alphaherpesvirus 3, HFF, read-out: % inhibition 10 ug/ml VZV
[4] = Human alphaherpesvirus 3, read-out: % inhibition 10 ug/ml VZV, 10 ug/ml, VZV strain Ellen, HFF cells, ELISA
[5] = Human alphaherpesvirus 3, VZV strain Ellen, HFF cells, ELISA

Row | SMILES | IC50 [1, 2] [µg/mL] | IC50 (HSV- I) [µg/mL] | inhibition at 10 µg/mL (VZV strain Ellen; [3]) [%] | IC50 (VZV strain Ellen; Human alphaherpesvirus 3, HFF) [µg/mL] | IC50 ([1]; read-out: IC50 ug/ml HCMV) [µg/mL] | inhibition at 10 µg/mL (VZV strain Ellen; [4]) [%] | IC50 (VZV strain Ellen; [5]) [µg/mL]
1 | COc1ccc(C(=O)Nc2ccc(NC(=S)Nc3ccc(OC)c(Cl)c3)cc2)cc1 [Example 820, N-{4-[3-(3-Chloro-4-methoxy-phenyl)-thioureido]-phenyl}-4-methoxy-benzamide] | 8 (≈ 18.1 µM) | 4 (≈ 9.05 µM) | 20 | > 10 | – | – | –
2 | COc1ccc(NC(=S)Nc2ccc(NC(=O)c3cccc(F)c3)cc2)cc1Cl [Example 822, N-{4-[3-(3-Chloro-4-methoxy-phenyl)-thioureido]-phenyl}-3-fluoro-benzamide] | 3 (≈ 6.98 µM) | 3 (≈ 6.98 µM) | 0 | > 10 | – | – | –
3 | COc1ccc(NC(=S)Nc2ccc(NC(=O)c3ccc(F)cc3)cc2)cc1Cl [Example 823, N-{4-[3-(3-Chloro-4-methoxy-phenyl)-thioureido]-phenyl}-4-fluoro-benzamide] | 6 (≈ 14 µM) | 6 (≈ 14 µM) | 7 | > 10 | – | – | –
4 | COc1cc(OC)c(NC(=S)Nc2ccc(NC(=O)c3ccccc3F)cc2)cc1Br [Example 827, N-{4-[3-(5-Bromo-2,4-dimethoxy-phenyl)-thioureido]-phenyl}-2-fluoro-benzamide] | 10 (≈ 19.8 µM) | 0.2 (≈ 0.397 µM) | 70 | 3.5 (≈ 6.94 µM) | – | – | –
5 | COc1cc(OC)c(NC(=S)Nc2ccc(NC(=O)c3ccccc3C)cc2)cc1Br [Example 829, N-{4-[3-(5-Bromo-2,4-dimethoxy-phenyl)-thioureido]-phenyl}-2-methyl-benzamide] | 10 (≈ 20 µM) | 0.25 (≈ 0.5 µM) | 50 | > 15 | – | – | –
6 | COc1ccc(C(=O)Nc2ccc(NC(=S)Nc3cc(Br)c(OC)cc3OC)cc2)cc1 [Example 830, N-{4-[3-(5-Bromo-2,4-dimethoxy-phenyl)-thioureido]-phenyl}-4-methoxy-benzamide] | > 10 | 1.5 (≈ 2.9 µM) | 16 | > 10 | – | – | –
7 | CSc1ccc(NC(=S)Nc2ccc(NC(=O)c3ccccc3F)cc2)cc1Cl [Example 847, N-{4-[3-(3-Chloro-4-methylsulfanyl-phenyl)-thioureido]-phenyl}-2-fluoro-benzamide] | 0.3 (≈ 0.673 µM) | 0.4 (≈ 0.897 µM) | 65 | > 10 | – | – | –
8 | CSc1ccc(NC(=S)Nc2ccc(NC(=O)c3c(F)cccc3F)cc2)cc1Cl [Example 848, N-{4-[3-(3-Chloro-4-methylsulfanyl-phenyl)-thioureido]-phenyl}-2,6-difluoro-benzamide] | 0.3 (≈ 0.647 µM) | 0.085 (≈ 0.183 µM) | 101 | 1.3 (≈ 2.8 µM) | – | – | –
9 | COc1cc(C)c(Cl)cc1NC(=S)Nc1ccc(NC(=O)c2ccccc2F)cc1 [Example 849, N-{4-[3-(5-Chloro-2-methoxy-4-methyl-phenyl)-thioureido]-phenyl}-2-fluoro-benzamide] | > 10 | > 10 | 38 | > 10 | – | – | –
10 | COc1cc(C)c(Cl)cc1NC(=S)Nc1ccc(NC(=O)c2ccccc2C)cc1 [Example 850, N-{4-[3-(5-Chloro-2-methoxy-4-methyl-phenyl)-thioureido]-phenyl}-2-methyl-benzamide] | 2 (≈ 4.55 µM) | 0.09 (≈ 0.205 µM) | 28 | 5 (≈ 11.4 µM) | – | – | –
11 | CN(C)c1ccc(NC(=S)Nc2ccc(NC(=O)c3ccccc3F)cc2)cc1Cl [Example 852, N-{4-[3-(3-Chloro-4-dimethylamino-phenyl)-thioureido]-phenyl}-2-fluoro-benzamide] | 0.6 (≈ 1.35 µM) | 4 (≈ 9.03 µM) | 80 | 6.5 (≈ 14.7 µM) | – | – | –
12 | CN(c1ccc(NC(=S)Nc2ccc(NC(=O)c3ccccc3F)cc2)cc1Cl)C1CCN(Cc2ccccc2)C1 (stereo not drawn) [Example 857, N-[4-(3-{4-[(1-Benzyl-pyrrolidin-3-yl)-methyl-amino]-3-chloro-phenyl)-thioureido)-phenyl]-2-fluoro-benzamide] | 6 (≈ 10.2 µM) | 2 (≈ 3.4 µM) | 80 | 7 (≈ 11.9 µM) | – | – | –
13 | O=C(Nc1ccc(NC(=S)Nc2ccccc2)cc1)c1ccccc1F [Example 859, 2-Fluoro-N-[4-(3-phenyl-thioureido)-phenyl]-benzamide] | – | > 10 | – | – | > 10 | 20 | > 10
14 | CC(O)c1ccc(NC(=S)Nc2ccc(NC(=O)c3ccccc3F)cc2)cc1Cl (stereo not drawn) [Example 865, N-(4-{3-[3-Chloro-4-(1-hydroxy-ethyl)-phenyl]-thioureido}-phenyl)-2-fluoro-benzamide] | 0.3 (≈ 0.676 µM) | 4 (≈ 9.01 µM) | 52 | > 10 | – | – | –
15 | CC(C)(C)c1cccc(NC(=S)Nc2ccc(NC(=O)c3ccccc3F)cc2)c1 [Example 869, N-{4-[3-(3-tert-Butyl-phenyl)-thioureido]-phenyl}-2-fluoro-benzamide] | 2.5 (≈ 5.93 µM) | 5.5 (≈ 13 µM) | 77 | 3 (≈ 7.12 µM) | – | – | –
16 | COc1c(Cl)cc(NC(=S)Nc2ccc(NC(=O)c3cccc(F)c3)cc2)cc1Cl [Example 872, N-{4-[3-(3,5-Dichloro-4-methoxy-phenyl)-thioureido]-phenyl}-3-fluoro-benzamide] | 0.6 (≈ 1.29 µM) | 4 (≈ 8.61 µM) | 28 | > 10 | – | – | –
17 | COc1ccccc1C(=O)Nc1ccc(NC(=S)Nc2cc(Cl)c(OC)c(Cl)c2)cc1 [Example 873, N-{4-[3-(3,5-Dichloro-4-methoxy-phenyl)-thioureido]-phenyl}-2-methoxy-benzamide] | 0.3 (≈ 0.63 µM) | > 10 | 23 | > 10 | – | – | –
18 | COc1c(Cl)cc(NC(=S)Nc2ccc(NC(=O)c3ccccc3F)cc2)cc1Cl [Example 874, N-{4-[3-(3,5-Dichloro-4-methoxy-phenyl)-thioureido]-phenyl}-2-fluoro-benzamide] | 0.2 (≈ 0.431 µM) | 5 (≈ 10.8 µM) | 75 | 3.5 (≈ 7.54 µM) | – | – | –
19 | COc1cccc(C(=O)Nc2ccc(NC(=S)Nc3cc(Cl)c(OC)c(Cl)c3)cc2)c1 [Example 875, N-{4-[3-(3,5-Dichloro-4-methoxy-phenyl)-thioureido]-phenyl}-3-methoxy-benzamide] | 0.4 (≈ 0.84 µM) | 6 (≈ 12.6 µM) | 20 | > 10 | – | – | –
20 | COc1ccc(C(=O)Nc2ccc(NC(=S)Nc3cc(Cl)c(OC)c(Cl)c3)cc2)cc1 [Example 880, N-{4-[3-(3,5-Dichloro-4-methoxy-phenyl)-thioureido]-phenyl}-4-methoxy-benzamide] | 10 (≈ 21 µM) | > 10 | 30 | > 10 | – | – | –
21 | O=C(Nc1ccc(NC(=S)Nc2ccc(C(F)(F)F)c(Cl)c2)cc1)c1ccccc1F [Example 911, N-{4-[3-(3-Chloro-4-trifluoromethyl-phenyl)-thioureido]-phenyl}-2-fluoro-benzamide] | 8 (≈ 17.1 µM) | > 10 | 38 | > 10 | – | – | –
22 | O=C(Nc1ccc(NC(=S)Nc2ccc(Cl)c(Cl)c2)cc1)c1ccccc1F [Example 912, N-{4-[3-(3,4-Dichloro-phenyl)-thioureido]-phenyl}-2-fluoro-benzamide] | > 10 | 8 (≈ 18.4 µM) | 21 | > 10 | – | – | –
23 | O=C(Nc1ccc(NC(=S)Nc2ccc(Br)c(Cl)c2)cc1)c1ccccc1F [Example 915, N-{4-[3-(4-Bromo-3-chloro-phenyl)-thioureido]-phenyl}-2-fluoro-benzamide] | – | > 10 | – | – | > 10 | 29 | > 10
24 | O=C(Nc1ccc(NC(=S)Nc2ccc(I)c(Cl)c2)cc1)c1ccccc1F [Example 916, N-{4-[3-(3-Chloro-4-iodo-phenyl)-thioureido]-phenyl}-2-fluoro-benzamide] | 3 (≈ 5.71 µM) | > 10 | 30 | > 10 | – | – | –
